Measurements: US6849661B2, “Treatment of abnormal increases in gastrointestinal motility with (R)-verapamil” (AGI Therapeutics, Ltd., priority 2002, dated 2005)
Values joined by “and” are separate entries in the source; they are usually repeats but may differ in a detail not shown here. Identical values can stand only once. Like-named read-outs stand apart in the source and are kept apart here.

Key:
rat aortic tissue = conditions: for pIC50 (−log M), Aorta / IC50: KCl 80 mM contracted rat aorta; for IC50: read-out: IC50 (M), Aorta
Description: Rat aortic tissue was prepared and mounted in a tissue bath by standard methods familiar to those skilled in the art. The physiological medium contained KCl at a concentration of 80 mM, which produces contractions of the aortic tissue.

rat vas prostatic tissue = test: Contractions to electrical stimulation in rat vas deferens, prostatic portion; assay type: cell-based; conditions: FIG. 3
Text: (§1) In rat vas deferens there are two components to nerve stimulation, an […] component, dominant in the epididymal portion, and a non-adrenergic (purinergic) component, dominant in the prostatic portion. […] (Brown et al., Br J Pharmacol., 79:379-393, 1983).

[1] = test system: rat vas epididymal tissue; test: Contractions in rat vas deferens, epididymal portion (in the presence of nifedipine); assay type: cell-based; conditions: high concentrations, FIG. 3
Text: as §1

rat colon tissue = test: Relaxation of KCl (80 mM)-induced contractions in rat colon tissue (tissue bath); assay type: cell-based; conditions: for IC50 / pIC50 (−log M), Colon: KCl 80 mM contracted rat colon
Description: Rat colon tissue was prepared and mounted in a tissue bath by standard methods familiar to those skilled in the art. The physiological medium contained KCl at a concentration of 80 mM, which produces contractions of the colon tissue. […] Potency was expressed as the concentration producing 50% of […] (IC50) or as the negative logarithm of the IC50 (pIC50).
Other compounds were tested for their ability to relax the KCl contractions, or block the relaxing action of verapamil.

SMILES	pIC50 (−log M), Aorta (rat aortic tissue)	IC50 (rat aortic tissue)	effect on contractions to electrical stimulation in vas prostatic tissue (rat vas prostatic tissue)	effect on epididymal contraction [1]	IC50 (rat colon tissue) [nM]	pIC50 (−log M), Colon (rat colon tissue)	ability to relax the KCl contractions (rat colon tissue; rat colon)	further results
COc1ccc(CCN(C)CCC[C@](C#N)(c2ccc(OC)c(OC)c2)C(C)C)cc1OC [(R)-verapamil]	5.35±0.24 −log M	4.47e-06 M and 4.78e-06 M	neither (R)-verapamil nor (S)-verapamil abolished contractions	reduced this epididymal contraction	851	6.07±0.16 −log M		pIC50 (−log M), Aorta (rat aortic tissue; listed as R Isomer): 5.35 −log M; times less potent than (S)-verapamil in the aorta (rat aortic tissue; rat aorta): 10 times; IC50 (rat aortic tissue; listed as R Isomer): 4.47e-06 M; pIC50 (−log M), Colon (rat colon tissue; listed as R Isomer): 6.07 −log M; times less potent than (S)-verapamil in the intestine (rat colon tissue; rat colon): three
COc1ccc(CCN(C)CCC[C@@](C#N)(c2ccc(OC)c(OC)c2)C(C)C)cc1OC [(S)-verapamil]	6.32±0.03 −log M	4.78e-07 M	neither (R)-verapamil nor (S)-verapamil abolished contractions	reduced this epididymal contraction	295	6.53±0.13 −log M and 6.32±0.03 −log M		times more potent than (R)-verapamil in colon (rat colon tissue; rat colon, concentrations tested 1-100 μM): approximately 3 times
COc1ccc(Cl)cc1C(=O)NCCc1ccc(S(=O)(=O)NC(=O)NC2CCCCC2)cc1 [Glibenclamine]								ability to block the relaxing action of verapamil on KCl contractions (rat colon tissue; rat colon): did not block the verapamil-induced relaxations
COc1cc2nc(N3CCN(C(=O)c4ccco4)CC3)nc(N)c2cc1OC [Prazosin]							did not significantly relax KCl contractions	
Cc1cccc(C)c1N=C1NCCCS1 [Xylazine]							small relaxation of the contractions, but only at the highest concentration tested (10^−4M)	
